Measured values from patent publication US6034231A, “Human CNP gene and precursor protein” (Suntory Limited, priority 1990, dated 2000).
Positions of bridges follow the written chain, without caps; N, C: chain ends. No end group written: not given here.

Tested on: chick rectum
Details: read-out: EC50, chick rectum relaxant activity; isolated chick rectum
Experimental: A chick rectum relaxant activity measurement was conducted in accordance with the method of Currie et al. described in Nature, 221, 1-13, 1983.

**Q.** “DLRVDTKSRAAWARLLQEHPNARKYKGANKKGLSKGCFGLKLDRIGSMSGLGC (disulfide 37-53) [hCNP-53]” was tested. Which EC50 did it give?
**A.** 0.87 ± 0.1 nM
